Results taken from patent US8952003B2, “Sterol derivative” (Kyowa Hakko Kirin Co., Ltd, priority 2009, dated 2015).

Each compound was assayed on Rat adult neural stem cell line ANSC-7 cells (assay: Proliferation promoting activity on neural stem cells (Test Example 1)). Details: at 1.0 nmol/L, relative value, negative control (DMSO) = 100%, wells without cells = 0%, absorbance at 490 nm.
Assay type: cell-based
Procedure: Rat adult neural stem cell line ANSC-7 cells prepared by the method described in the following Reference Test Example 1 were suspended in assay medium at a density of 1.6×10^5 cells/mL; inoculated at 0.1 mL in a 96 well plate (manufactured by Costar) of which surface was coated with polyornithine and laminin; and cultured overnight at 37° C. under an atmosphere of 5% CO2. Thereafter, 50 μL of the culture supernatant was removed, and 50 μL of a test compound which was serially diluted with the assay medium to 2 times of the final concentration or DMSO (negative control) was added to each well. For the serial dilution of a test compound, non-specific adsorption was minimized by using ProteoSave 96 U plates (manufactured by SUMILON), siliconized 1.5 mL tubes (manufactured by Assist) and Pitarack siliconized tips (manufactured by Nacalai). After the culturing for 48 hours, 50 μL of the culture supernatant was replaced by 50 μL of the assay medium containing 0.1% bovine fetal serum. Furthermore, after the culturing for 48 hours, Living Cell Count Reagent SF (manufactured by Nacalai Tesque) was added at the volume of 10 μL per well to the medium. After the culturing for 3 hours at 37° C. in the incubator which was set at 5% CO2, the resulting solution was stirred for one minute and then the absorbance at 490 nm (control wavelength 655 nm) was measured by using Microplate Spectrophotometer Emax (manufactured by Molecular Devices). By regarding the measured value of well to which the cells were not inoculated as 0%, and the measured value of negative control as 100%, relative values in the test compound addition group were calculated.
After putting a 7-week-old Sprague Dawley Rat to sleep by ether anesthesia and subsequent decapitation, the skull was cut open from the parietal region to extract the brain. Under a microscope, tissues including circumventricular region were isolated from the extracted brain by using ophthalmic scissors and tweezers. The tissues including circumventricular region were cut into fragments of about 1 mm^3 using ophthalmic scissors and scalpels and then subjected to 30 minutes of digestion reaction at 37° C. in 5 mL of Hanks' buffer (HBSS buffer, manufactured by Invitrogen) containing 2.5 U/mL of papain, 250 U/mL of DNase (all manufactured by Worthington, Freehold, N.J.) and 1 U/mL of a neutral protease (Dispase, manufactured by Boehringer-Mannheim Corp.). The mixture of cells and tissues obtained by the reaction was washed three times with DMEM (manufactured by Invitrogen) containing 10% fetal bovine serum (manufactured by Hyclone) and then dissolved in the DMEM containing 10% fetal bovine serum, followed by removing the undigested materials using a nylon mesh of […].
The resulting crude cells extract was cultured overnight on a culture dish of 10 cm, in an incubator of 37° C. using DMEM/F12 medium (manufactured by Invitrogen) containing 10% fetal bovine serum. On the next day, the medium was replaced with DMEM/F12 containing 1% of N-2 additives (manufactured by Invitrogen) and 20 ng/mL of FGF 2 (manufactured by Pepro Tech) and the culturing was started. Once in 3 days, half of the medium was replaced with new DMEM/F12 containing 1% of N-2 additives and 20 ng/mL of FGF 2 and the culturing was continued.
When a small colony consisting of small cells was formed, it was treated with 1% trypsin for 30 seconds to 1 minute, and the cells detached were harvested. The harvested cells were inoculated on a multiple well culture dish (manufactured by Fisher Scientific) which had been coated at room temperature overnight using 10 μg/mL of polyornithine (manufactured by Sigma) and at 37° C. overnight using 5 μg/mL of mouse EHS tumor-derived laminin (Becton Dickinson), and the culturing was continued.
By continuing the above-mentioned culturing, small cells having small protrusion and thickness were concentrated. The cells were used as adult neural stem cells in the above-mentioned test (Test Example 1).

| SMILES | activity at 0.001 µM [%] |
| --- | --- |
| CC(C)CCC[C@H](C)[C@H]1CC[C@H]2C3=C(CC[C@]12C)[C@@]1(C)CCC(=NO)CC1C(=O)O3 (stereo partly drawn) [Compound 3, (S)-3-Hydroxyimino-7-oxa-8-cholesten-6-one] | ≥ 125 |
| CC(C)CNC[C@@H](C)[C@H]1CC[C@H]2C3=C(CC[C@]12C)[C@@]1(C)CC[C@H](O)C[C@@H]1C(=O)O3 [Compound 83, (1R,3aR,5aS,7S,9aS,11aR)-7-Hydroxy-1-[(S)-1-isobutylaminopropan-2-yl]-9a,11a-dimethyl-1,2,3,3a,5a,6,7,8,9,9a,11,11a-dodecahydrobenzo[c]cyclopenta[h]chromen-5(10H)-one] | ≥ 125 |
| CC(C)CCC[C@@H](C)[C@H]1CC[C@H]2C3=C(CC[C@]12C)[C@@]1(C)C[C@@H](O)[C@H](O)C[C@@H]1C(=O)O3 [Compound 53, (2R,3R,5S)-2,3-Dihydroxy-7-oxa-8-cholesten-6-one] | ≥ 125 |
| COCO[C@H]1CC[C@]2(C)C3=C(OC(=O)[C@H]2C1)[C@@H]1CC[C@H]([C@H](C)CNCC(C)C)[C@@]1(C)CC3 [Compound 69, (1R,3aR,5aS,7S,9aS,11aR)-1-[(S)-1-Isobutylaminopropan-2-yl]-7-methoxymethoxy-9a,11a-dimethyl-1,2,3,3a,5a,6,7,8,9,9a,11,11a-dodecahydrobenzo[c]cyclopenta[h]chromen-5(10H)-one] | ≥ 125 |
| C=CCOC[C@@H](C)[C@H]1CC[C@H]2C3=C(CC[C@]12C)[C@@]1(C)CC[C@H](OCOC)C[C@@H]1C(=O)O3 [Compound 66, (1R,3aR,5aS,7S,9aS,11aR)-1-[(S)-1-Allyloxypropan-2-yl]-7-methoxymethoxy-9a,11a-dimethyl-1,2,3,3a,5a,6,7,8,9,9a,11,11a-dodecahydrobenzo[c]cyclopenta[h]chromen-5(10H)-one] | ≥ 125 |
| CC(C)CCC[C@@H](C)[C@H]1CCC2=C3OC(=O)[C@H]4C[C@@H](O)CC[C@]4(C)[C@H]3CC[C@@]21C [Compound 99, (1R,5aS,7S,9aR,9bR,11aR)-7-Hydroxy-9a,11a-dimethyl-1-[(R)-6-methylheptan-2-yl]-2,3,3,5a,6,7,8,9,9a,9b,10,11,11a-dodecahydrobenzo[c]cyclopenta[h]chromen-5(1H)-one] | ≥ 125 |
| CC(C)CCC[C@@H](C)[C@H]1CC[C@H]2C3=C(CC[C@]12C)[C@@]1(C)C[C@@H](O)C(=O)C[C@@H]1C(=O)O3 [Compound 48, (2R,5S)-2-Hydroxy-7-oxa-8-cholesten-3,6-dione] | ≥ 125 |
| CC(C)CCC[C@@H](C)[C@H]1CC[C@H]2C3=C(CC[C@]12C)[C@]1(C)[C@H](C[C@@H](O)[C@H](O)[C@@H]1O)C(=O)O3 [Compound 32, (1R,2S,3R,5S)-1,2,3-trihydroxy-7-oxa-8-cholesten-6-one] | ≥ 125 |
| CC(CO)CCC[C@H](C)[C@H]1CC[C@H]2C3=C(CC[C@]12C)[C@@]1(C)CC[C@H](O)C[C@@H]1C(=O)O3 (some centres unmarked) [Compound 79, 7-Oxa-cholest-8(9)-en-6-on-3,26-diol] | ≥ 125 |
| CC(C)COC[C@@H](C)[C@H]1CC[C@H]2C3=C(CC[C@]12C)[C@@]1(C)CC[C@H](O)C[C@@H]1C(=O)O3 [Compound 81, (1R,3aR,5aS,7S,9aS,11aR)-7-Hydroxy-1-[(S)-1-isobutyloxypropan-2-yl]-9a,11a-dimethyl-1,2,3,3a,5a,6,7,8,9,9a,11,11a-dodecahydrobenzo[c]cyclopenta[h]chromen-5(10H)-one] | ≥ 125 |
| CC(C)CCC[C@@H](C)[C@H]1CC[C@H]2C3=C(CC[C@]12C)[C@@]1(C)CC[C@H](OCCO)C[C@@H]1C(=O)O3 [Compound 31, (3S,5S)-3-(2-Hydroxy)ethoxy-7-oxa-8-cholesten-6-one] | ≥ 125 |

Same assay, conditions: at 10 nmol/L, relative value, negative control (DMSO) = 100%, wells without cells = 0%, absorbance at 490 nm

| SMILES | activity at 0.01 µM [%] |
| --- | --- |
| CC(C)CCC[C@@H](C)[C@H]1CC[C@@H]2[C@]1(C)CC[C@@]13O[C@@]21OC(=O)[C@H]1CC(=O)CC[C@@]13C [Compound 94, (5S,8S,9S)-7-Oxa-8,9-epoxy-3,6-cholestadione] | ≥ 125 |
| CC(CO)CCC[C@H](C)[C@H]1CCC2=C3OC(=O)[C@H]4C[C@@H](O)CC[C@]4(C)[C@H]3CC[C@@]21C (stereo in doubt) [Compound 90, 7-oxa-cholest-8(14)-en-6-on-3,26-diol] | ≥ 125 |
| CC(CCC[C@H](C)[C@H]1CC[C@H]2C3=C(CC[C@]12C)[C@@]1(C)CC[C@H](O)C[C@@H]1C(=O)O3)C(=O)O (some centres unmarked) [Compound 80, 7-Oxa-3-hydroxy-cholest-8(9)-en-6-on-26-acid] | ≥ 125 |
| CC(C)C(C)CC[C@H](C)[C@H]1CC[C@H]2C3=C(CC[C@]12C)[C@@]1(C)CC[C@H](O)C[C@@H]1C(=O)O3 (stereo in doubt) [Compound 76, 7-Oxa-ergosta-8(9)-en-6-on-3-ol] | ≥ 125 |
| CC(C)CCC[C@@H](C)[C@H]1CC[C@H]2C3=C(CC[C@]12C)[C@@]1(C)CCNC(=O)C[C@@H]1C(=O)O3 [Compound 34, (1R,3aR,5aS,10aS,12aR)-10a,12a-Dimethyl-1-[(R)-6-methylheptan-2-yl]-1,2,3,3a,5a,6,9,10,10a,11,12,12a-dodecahydro-8-azacyclohepta[c]cyclopenta[h]chromen-5,7-dione] | ≥ 125 |
| COCO[C@H]1CC[C@]2(C)C3=C(OC(=O)[C@H]2C1)[C@@H]1CC[C@H]([C@H](C)CCCCCCO)[C@@]1(C)CC3 [Compound 74, (1R,3aR,5aS,7S,9aS,11aR)-1-[(R)-8-Hydroxyoctan-2-yl]-7-methoxymethoxy-9a,11a-dimethyl-1,2,3,3a,5a,6,7,8,9,9a,11,11a-dodecahydrobenzo[c]cyclopenta[h]chromen-5(10H)-one] | ≥ 125 |

Same assay, conditions: at 100 nmol/L, relative value, negative control (DMSO) = 100%, wells without cells = 0%, absorbance at 490 nm

| SMILES | activity at 0.1 µM [%] |
| --- | --- |
| CC(C)CCC[C@@H](C)[C@H]1CC[C@H]2[C@H]3OC(=O)[C@H]4CC(=O)CC[C@]4(C)[C@H]3CC[C@]12C [Compound 93, (1R,3aR,3bR,5aS,9aR,9bR,11aR)-9a,11a-Dimethyl-1-[(R)-6-methylheptan-2-yl]dodecahydrobenzo[c]cyclopenta[h]chromen-5,7(3bH,8H)-dione] | ≥ 125 |
| COCO[C@H]1CC[C@]2(C)C3=C(OC(=O)[C@H]2C1)[C@@H]1CC[C@H]([C@H](C)CN2CCOCC2)[C@@]1(C)CC3 [Compound 72, (1R,3aR,5aS,7S,9aS,11aR)-7-Methoxymethoxy-9a,11a-dimethyl-1[(S)-1-morpholinopropan-2-yl]-1,2,3,3a,5a,6,7,8,9,9a,11,11a-dodecahydrobenzo[c]cyclopenta[h]chromen-5(10H)-one] | ≥ 125 |
| CC(C)C(=O)CC[C@H](C)[C@H]1CC[C@H]2C3=C(CC[C@]12C)[C@@]1(C)CC[C@H](O)C[C@@H]1C(=O)O3 (stereo in doubt) [Compound 78, 7-Oxa-cholest-8(9)-en-6,24-dion-3-ol] | ≥ 125 |
| CC(C)CCC[C@@H](C)[C@H]1CC[C@H]2C3=C(CC[C@]12C)[C@@]1(C)CC[C@H](OCc2ccccc2)C[C@@H]1C(=O)O3 [Compound 47, (3S,5S)-3-Benzyloxy-7-oxa-8-cholesten-6-one] | ≥ 125 |
| C=CC[C@]12C[C@@H](O)CC[C@]1(C)C1=C(OC2=O)[C@@H]2CC[C@H]([C@H](C)CCCC(C)C)[C@@]2(C)CC1 [Compound 30, (3S,5S)-3-hydroxy-5-allyl-7-oxa-8-cholesten-6-one] | ≥ 125 |
| CC(C)CCC[C@@H](C)[C@H]1CC[C@H]2C3=C(CC[C@]12C)[C@]1(C)[C@H](CC=C[C@@H]1O)C(=O)O3 [Compound 21, (1S,5S)-1-Hydroxy-7-oxa-2,8-cholestadien-6-one] | ≥ 125 |
